# Reference: patent US20110206792A1, “COMPOSITIONS COMPRISING VITAMINS” (priority 2008, published 2011)
# Experiment: Stability studies for Melatonin, Resveratrol and L-ascorbic acid in cosmetic serum (HPLC with diode array detection, 55 days)
# Type: physicochemical
# Settings: for concentration in the mixed formulation: formulation containing all three compounds, unchanged over 55 days; for change of concentration/percentage over 55 days: mixed versus single component formulation, 25° C. and 40° C.
# Protocol: Stability studies for Melatonin, Resveratrol and L-ascorbic acid in cosmetic serum Object of this work was the studies related to the stability of Melatonin, Resveratrol and L-ascorbic acid when individually present in formulation in comparison with a formulation in which they are simultaneously mixed together, in order to explore the potential stabilization of L-ascorbic acid by Melatonin. The stability studies were performed at 25° C. (room temperature) and 40° C. (oven) for 55 days. Four formulations were analyzed: one mixture containing the three compounds together plus 3 formulations, which individually contained the three compounds. The excipients were all the same in the four formulations. The method employed to follow formulation stability is an HPLC method with diode array detection, under gradient conditions, as specified in the previous report. The results of these studies are shown in the graphs reported in FIGS. 10, 11 and 12 as well as in the following Tables 1, 2 and 3 where the percentages of the three compounds in the formulation (p/p) are plotted against time. In particular, the percentages were determined over 55 days, by comparison with reference standard compounds.
# [1] = mix (three compounds together), T = 25° C., day 0
# [2] = mix (three compounds together), T = 25° C., day 2
# [3] = mix (three compounds together), T = 25° C., day 50
# [4] = mix (three compounds together), T = 25° C., day 55
# [5] = mix (three compounds together), T = 40° C., day 0
# [6] = mix (three compounds together), T = 40° C., day 42
# [7] = mix (three compounds together), T = 40° C., day 44
# [8] = mix (three compounds together), T = 40° C., day 48
# [9] = mix (three compounds together), T = 40° C., day 51
# [10] = mix (three compounds together), T = 40° C., day 55
# [11] = single component formulation, T = 25° C., day 0
# [12] = single component formulation, T = 25° C., day 2
# [13] = single component formulation, T = 25° C., day 44
# [14] = single component formulation, T = 25° C., day 48
# [15] = single component formulation, T = 25° C., day 50
# [16] = single component formulation, T = 25° C., day 55
# [17] = single component formulation, T = 40° C., day 0
# [18] = single component formulation, T = 40° C., day 42
# [19] = single component formulation, T = 40° C., day 48
# [20] = single component formulation, T = 40° C., day 51
# [21] = single component formulation, T = 40° C., day 55
# [22] = mix (three compounds together), T = 25° C., day 44
# [23] = mix (three compounds together), T = 25° C., day 48
# [24] = single component formulation, T = 40° C., day 44
Compound,concentration in the mixed formulation [%],percentage of the compound in the formulation (p/p) [1] [%],percentage of the compound in the formulation (p/p) [2] [%],percentage of the compound in the formulation (p/p) [3] [%],percentage of the compound in the formulation (p/p) [4] [%],percentage of the compound in the formulation (p/p) [5] [%],percentage of the compound in the formulation (p/p) [6] [%],percentage of the compound in the formulation (p/p) [7] [%],percentage of the compound in the formulation (p/p) [8] [%],percentage of the compound in the formulation (p/p) [9] [%],percentage of the compound in the formulation (p/p) [10] [%],percentage of the compound in the formulation (p/p) [11] [%],percentage of the compound in the formulation (p/p) [12] [%],percentage of the compound in the formulation (p/p) [13] [%],percentage of the compound in the formulation (p/p) [14] [%],percentage of the compound in the formulation (p/p) [15] [%],percentage of the compound in the formulation (p/p) [16] [%],percentage of the compound in the formulation (p/p) [17] [%],percentage of the compound in the formulation (p/p) [18] [%],percentage of the compound in the formulation (p/p) [19] [%],further results
O=C1O[C@H]([C@@H](O)CO)C(O)=C1O [L-ascorbic acid],14.5,15.34,14.10,15.10,15.00,14.35,14.30,15.13,13.50,14.96,15.00,13.40,13.32,8.80,10.80,10.50,10.43,14.86,8.46,8.60,"change in L-ascorbic acid concentration (formulation containing all the three ingredients, 55 days): no change; loss of L-ascorbic acid (single component formulation, 25° C., 55 days): 22%; loss of L-ascorbic acid (single component formulation, 40° C., 55 days): 36%; percentage of the compound in the formulation (p/p) [20]: 9.00%; percentage of the compound in the formulation (p/p) [21]: 9.60%"
COc1ccc2[nH]cc(CCNC(C)=O)c2c1 [Melatonin],0.20,0.20,0.25,0.23,0.20,0.18,0.17,0.18,0.14,0.18,0.20,0.28,0.33,0.30,0.26,0.31,0.30,0.26,0.25,0.29,percentage of the compound in the formulation (p/p) [22]: 0.20%; percentage of the compound in the formulation (p/p) [23]: 0.20%; change of concentration/percentage over 55 days: does not change much; concentration in the single component formulation (same concentration found after 55 days of storage at 25° C. and 40° C.): 0.28%; percentage of the compound in the formulation (p/p) [24]: 0.25%; percentage of the compound in the formulation (p/p) [20]: 0.29%; percentage of the compound in the formulation (p/p) [21]: 0.28%
Oc1ccc(C=Cc2cc(O)cc(O)c2)cc1 [Resveratrol],0.20,0.20,0.20,0.14,0.16,0.20,0.18,0.18,0.20,0.16,0.18,0.22,0.19,0.17,0.20,0.17,0.17,0.22,0.16,0.18,"degradation (in 55 days, in all the conditions, formulations kept at 25° C. and 40° C.): approximately 10%; percentage of the compound in the formulation (p/p) [22]: 0.14%; percentage of the compound in the formulation (p/p) [23]: 0.20%; change of concentration/percentage over 55 days: does not change significantly; percentage of the compound in the formulation (p/p) (single component formulation, T = 40° C., day 2): 0.19%; percentage of the compound in the formulation (p/p) [24]: 0.20%; percentage of the compound in the formulation (p/p) [20]: 0.20%; percentage of the compound in the formulation (p/p) [21]: 0.20%"
